Measured values taken from article PMC5171801, “Identification and Characterization of Roseltide, a Knottin-type Neutrophil Elastase Inhibitor Derived from Hibiscus sabdariffa” (Scientific Reports, 2016).
Ends that are not written are not given here.

Assays:
Human serum stability = assay type: in vitro ADME; conditions: 0.1 M peptide, 25% human serum in DMEM without phenol red, 37 °C, 0, 24 and 48 h, ethanol precipitation, RP-UHPLC peak area, n = 3
Description: 0.1 M of purified roseltide rT1 was prepared in 25% human serum in DMEM medium without phenol red. The test samples were incubated at 37 °C. DALK was used as a positive control. Samples were collected at various time points (0, 24 and 48 h). The collected samples were subjected to protein precipitation with 100% ethanol and centrifugation at 180,000 g for 5 min at 4 °C. The supernatant was collected for analysis.

trypsin = trypsin (Bos taurus, UniProt P00760); conditions: 0.1 M peptide, 100 mM Tris buffer pH 8, trypsin 50:1 (w/v), 37 °C, 0-120 min, RP-UHPLC peak area, n = 3
Description: (§1) 0.1 M of purified roseltide rT1 was dissolved in 100 mM Tris buffer (pH 8) and incubated with trypsin (Catalog number: T1426, Roche Applied Science, US) in a 50:1 (w/v) ratio at 37 °C. 0.1 M of purified roseltide rT1 was dissolved in 0.2 M HCl and incubated with pepsin (Catalog number: 03117901001, Roche Applied Science, US) in a 50:1 (w/v) ratio at 37 °C. […] Samples were collected at various time points (0, 15, 30, 45, 60 and 120 min).
(§2) All collected samples from various stability assays were analyzed by RP-UHPLC with a linear gradient of mobile phase A (0.05% TFA/H2O) and mobile phase B (0.05% TFA/ACN) on C18 column (3.6 μm particle size; 2.1 mm internal diameter; 10 cm length) (Phenomenex, US). The resulting peaks were collected and the identified by MALDI-TOF MS. The results were expressed as percentage of initial concentration using the peak area of the UHPLC profile.

pepsin = pepsin (Sus scrofa, UniProt P00791); conditions: 0.1 M peptide, 0.2 M HCl, pepsin 50:1 (w/v), 37 °C, 0-120 min, RP-UHPLC peak area, n = 3
Description: as §1, §2

[1] = molecular target: T1, Human neutrophil elastase (HNE) (Homo sapiens, UniProt P08246); assay: Human neutrophil elastase inhibition assay; assay type: biochemical; conditions: 1.75 U/mL HNE, 0.6 mM N-Methoxysuccinyl-Ala-Ala-Pro-Val p-nitroanilide, 100 mM Tris buffer pH 8.0, 37 °C, absorbance 405 nm for 1 h, normalized initial velocity, mean n = 3; read-out: IC50, enzymatic activity of human neutrophil elastase
T1 construct: purchased Sigma-Aldrich or ThermoFisher Scientific (general statement only)
T1 sequence (P08246 30-267): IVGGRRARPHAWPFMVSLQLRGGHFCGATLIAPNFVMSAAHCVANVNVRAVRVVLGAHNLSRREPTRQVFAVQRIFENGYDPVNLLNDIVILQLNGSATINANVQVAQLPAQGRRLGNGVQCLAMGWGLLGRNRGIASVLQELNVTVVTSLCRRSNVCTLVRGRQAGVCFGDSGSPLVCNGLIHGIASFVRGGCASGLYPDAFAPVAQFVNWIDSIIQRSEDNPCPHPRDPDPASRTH
Description: Human neutrophil elastase (HNE) activity was determined by measuring the release of p-nitroanilide at 405 nm at 37 °C using N-Methoxysuccinyl-Ala-Ala-Pro-Val p-nitroanilide as substrates. Purified roseltide rT1 was incubated with 1.75 U/mL HNE and 0.6 mM substrate in 100 mM Tris buffer (pH 8.0) at 37 °C; absorbance was measured continuously for 1 h. […] The results were presented as normalized initial velocity.

Acid stability = assay type: physicochemical; conditions: in 0.2 M HCl, 37 °C, 0-120 min, RP-UHPLC peak area as % of initial, n = 3
Description: 0.1 M of purified roseltide rT1 was dissolved in 0.2 M HCl or phosphate buffered saline (PBS) (control) and incubated at 37 °C. Samples were collected at various time points (0, 15, 30, 45, 60 and 120 min).

PAR2-cAMP-CHO cells = assay: Glosensor cAMP assay, neutrophil elastase-stimulated cAMP accumulation; assay type: cell-based, Chinese Hamster; conditions: co-incubation of HNE with peptide; CHO-K1 co-expressing PAR2 and Glosensor cAMP biosensor; luminescence 20 min, area under the curve; n = 3
Description: Huh7 (human liver carcinoma cells), A549 (human lung adenocarcinoma epithelial cells) cells, and Chinese Hamster Ovary-K1 cells (CHO-K1) were cultured in Dulbecco’s Modified Eagle’s Medium (DMEM)/Ham’s F12 containing 15 mM HEPES and L-glutamine and supplemented with 10% fetal bovine serum, 100 U/mL of penicillin, and streptomycin. The cells were grown in a 5% CO2 humidified incubator at 37 °C. CHO-K1 cells were transfected with pGlosensor-20F plasmid by electroporation and selected using 500 μg/mL hygromycin. CHO-K1 cells stably expressing the pGlosensor-20F construct (cAMP-CHO) were then transfected with pCMV6-XL5 encoding PAR2 receptor (NM 005242.3) and selected using 500 μg/mL G418. Stable cell lines co-expressing both pGlosensor-20F and PAR2 receptor constructs (PAR2-cAMP-CHO) were maintained with 500 μg/mL hygromycin and 500 μg/mL G418.
Glosensor cAMP assays were performed according to the manufacturer’s instructions. […] Luminescent intensity was measured using a microplate reader (Tecan Infinite 200 Pro, Switzerland); the plate was pre-read for 30 s to establish basal luminescent level. Following treatment, luminescent levels were continuously monitored for 20 min. The results are presented as fold change relative to basal luminescent levels and were quantified using the area under the curve.

[2] = molecular target: human neutrophil elastase (human) (UniProt P08246)

Sequence of pepsin (P00791 60-385): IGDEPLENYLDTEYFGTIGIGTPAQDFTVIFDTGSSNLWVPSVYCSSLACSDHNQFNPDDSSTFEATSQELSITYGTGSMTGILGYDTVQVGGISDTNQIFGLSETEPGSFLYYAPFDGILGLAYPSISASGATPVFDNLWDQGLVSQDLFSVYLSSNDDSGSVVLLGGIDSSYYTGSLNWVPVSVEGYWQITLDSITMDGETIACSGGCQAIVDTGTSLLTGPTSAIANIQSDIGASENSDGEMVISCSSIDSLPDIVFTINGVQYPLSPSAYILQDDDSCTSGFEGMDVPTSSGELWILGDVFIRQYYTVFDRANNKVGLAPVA
Sequence of trypsin (P00760 24-246): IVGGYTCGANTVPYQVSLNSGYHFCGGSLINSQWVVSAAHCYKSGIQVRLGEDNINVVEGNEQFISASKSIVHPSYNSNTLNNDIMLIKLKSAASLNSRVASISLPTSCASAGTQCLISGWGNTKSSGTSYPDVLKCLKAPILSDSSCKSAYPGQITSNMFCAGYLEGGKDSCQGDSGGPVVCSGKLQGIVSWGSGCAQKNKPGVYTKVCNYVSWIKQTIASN

Row | inhibition of the enzymatic activity of human neutrophil elastase (release of p-nitroanilide from N-methoxysuccinyl-Ala-Ala-Pro-Val p-nitroanilide, 405 nm, 37 °C, 100 mM Tris pH 8.0), IC50 [2] [μM] | Substance | human serum stability (resistance against degradation) (Human serum stability) | trypsin stability (resistance against degradation) (trypsin) | pepsin stability (resistance against degradation) (pepsin) | IC50 [1] [nM] | acid stability (resistance against degradation) (Acid stability) | effect on human neutrophil elastase-stimulated cAMP accumulation (PAR2-cAMP-CHO cells)
1 |  | CIPRGGICLVALSGCCNSPGCIFGICA (also: bicyclic or more (positions not given here)) [roseltide rT1, 27-residue cystine-knot peptide purified from Hibiscus sabdariffa calyces; disulfides Cys1-Cys16, Cys8-Cys21, Cys15-Cys26] | resistant | resistant | resistant | 470 | resistant | significantly suppressed
2 | 0.47 | roseltide rT1 (peptide) |  |  |  |  |  | 
